Laboratory results as given in patent US3960859A, “21-Deoxydihydroajmaline derivatives” (VEB Arzneimittelwerk Dresden, priority 1975, dated 1976).
Counter-ions that a name gives are not always drawn.

Tests used:
[1] = system: aconitine-induced ventricular extrasystoles; assay: Aconitine test procedures carried out in rats (antiarrhythmic activity); assay type: in vivo
Text: (§1) In the procedures the term ED20 designates the dose in mg/kg at which only isolated or sporadic ventricular extrasystoles occur.

in vivo = details: for Q: Table 1, ratio not defined in text (equals LD50/ED20)
Text: as §1

[2] = system: fibrillation or flutter generated by aconitine; assay type: in vivo; details: dog
[3] = background statement; cited from earlier work

## CCC(C)C1CC2C3N(C)c4ccccc4C34CC(C1C4O)N2CCN1CCCCC1 (stereo not drawn) [Example 3, 4-(β-piperidinoethyldeoxydihydroajmaline-dihydrochloride)]
[1]; Rattus norvegicus
  ED20: 0.25 mg/kg
In vivo
  Q: 21.6
In vivo; rat, in vivo
  LD50: 5.4 mg/kg
[2]; Example 3 (0.6 mg/kg)
  side effects: no side effects
[2]; Example 3 at 0.6 mg/kg compared with N-propylajmaline at 0.3 mg/kg
  therapeutic effectiveness against aconitine fibrillation or flutter: about the same therapeutic effectiveness as N-propylajmaline administered in a dose of 0.3 mg/kg

## CC[C@H]1[C@@H]2C[C@H]3[C@@H]4N(C)c5ccccc5[C@]45C[C@@H]([C@H]2[C@H]5O)N3[C@@H]1O [Ajmaline, ajmaline]
[3]
  rhythm regulating / antiarrhythmic activity (in words): valuable antiarhythmic properties
[1]; Rattus norvegicus
  ED20: 2.13 mg/kg
In vivo
  Q: 12.2
In vivo; rat, in vivo
  LD50: 26 mg/kg

## CCC(C)C1CC2NC3CC4(c5ccccc5N(C)C24)C(O)C31 (stereo not shown) [21-deoxydihydroajmaline]
[3]
  rhythm regulating / antiarrhythmic activity (in words): rhythm regulating activity is extensively lost

## CCC[N+]12[C@H](O)[C@@H](CC)[C@@H]3C[C@H]1[C@@H]1N(C)c4ccccc4[C@]14C[C@H]2[C@@H]3[C@H]4O [N-Propylajmaline, N-propylajmaline]
[1]; aconitine test, rats, dose at which only isolated or sporadic ventricular extrasystoles occur
  ED20: 0.17 mg/kg
In vivo; Table 1, aconitine test procedures in rats, unit not given
  LD50: 1.4
[2]; N-propylajmaline (0.3 mg/kg)
  undesirable side effects, share of cases: at least 30%
